{"source": "the supplement of paper PMC10307832", "assay_in_all_cases": "relative viability (nuclei count vs DMSO), 5 days (fraction); higher = more cells survive", "key": {"[1]": {"system": "NCI-H838", "how_it_was_run": "(§1)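 Relative viability divides the nuclei count in treated wells by that in vehicle wells. Lung cancer cell lines were seeded in 1536-well plates, dosed by pin tool the next day, and fixed and stained after 5 days in one step with final 0.05% Triton X-100, 1% formaldehyde and 1 ug/ml Hoechst. Dosing was a single drug or a fixed anchor-drug dose plus five library-drug doses (not always all listed) in √10 steps, and values are medians of duplicate plates imaged at 4×.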"}, "[2]": {"system": "CAL-12T", "how_it_was_run": "as §1"}, "[3]": {"system": "NCI-H1734", "how_it_was_run": "as §1"}, "[4]": {"system": "NCI-H3122", "how_it_was_run": "as §1"}, "[5]": {"system": "NCI-H1975", "how_it_was_run": "as §1"}, "[6]": {"system": "HCC-366", "how_it_was_run": "as §1"}, "[7]": {"system": "NCI-H647", "how_it_was_run": "as §1"}, "[8]": {"system": "SK-LU-1", "how_it_was_run": "as §1"}, "[9]": {"system": "LC-2-ad", "how_it_was_run": "as §1"}, "[10]": {"system": "H3255", "how_it_was_run": "as §1"}, "[11]": {"system": "LU99A", "how_it_was_run": "as §1"}, "[12]": {"system": "NCI-H1563", "how_it_was_run": "as §1"}, "[13]": {"system": "NCI-H1944", "how_it_was_run": "as §1"}, "[14]": {"system": "NCI-H1666", "how_it_was_run": "as §1"}, "[15]": {"system": "HCC-15", "how_it_was_run": "as §1"}, "[16]": {"system": "PC-3 [JPC-3]", "how_it_was_run": "as §1"}, "[17]": {"system": "NCI-H1993", "how_it_was_run": "as §1"}, "[18]": {"system": "NCI-H1395", "how_it_was_run": "as §1"}, "[19]": {"system": "PC-14", "how_it_was_run": "as §1"}, "[20]": {"system": "COR-L 105", "how_it_was_run": "as §1"}, "[21]": {"system": "HARA", "how_it_was_run": "as §1"}}, "data": [{"smiles": "COCC1(CO)C(=O)C2CCN1CC2", "note": "(stereo unspecified) [PRIMA-1MET] + CS(=O)(=O)N1CCN(Cc2cc3nc(-c4cccc5[nH]ncc45)nc(N4CCOCC4)c3s2)CC1 [Pictilisib] (partner 1 µM)", "values": [{"measurement": "relative viability", "setting": "[1]; first compound 0.2 µM", "value": 0.46}, {"measurement": "relative viability", "setting": "[1]; first compound 0.6325 µM", "value": 0.448}, {"measurement": "relative viability", "setting": "[1]; first compound 2 µM", "value": 0.355}, {"measurement": "relative viability", "setting": "[1]; first compound 6.325 µM", "value": 0.589}, {"measurement": "relative viability", "setting": "[1]; first compound 20 µM", "value": 0.632}, {"measurement": "relative viability", "setting": "[2]; first compound 0.2 µM", "value": 0.486}, {"measurement": "relative viability", "setting": "[2]; first compound 0.6325 µM", "value": 0.421}, {"measurement": "relative viability", "setting": "[2]; first compound 2 µM", "value": 0.315}, {"measurement": "relative viability", "setting": "[2]; first compound 6.325 µM", "value": 0.332}, {"measurement": "relative viability", "setting": "[2]; first compound 20 µM", "value": 0.0828}, {"measurement": "relative viability", "setting": "[3]; first compound 0.2 µM", "value": 0.446}, {"measurement": "relative viability", "setting": "[3]; first compound 0.6325 µM", "value": 0.465}, {"measurement": "relative viability", "setting": "[3]; first compound 2 µM", "value": 0.408}, {"measurement": "relative viability", "setting": "[3]; first compound 6.325 µM", "value": 0.386}, {"measurement": "relative viability", "setting": "[3]; first compound 20 µM", "value": 0.0877}, {"measurement": "relative viability", "setting": "[4]; first compound 0.2 µM", "value": 0.288}, {"measurement": "relative viability", "setting": "[4]; first compound 0.6325 µM", "value": 0.647}, {"measurement": "relative viability", "setting": "[4]; first compound 2 µM", "value": 0.659}, {"measurement": "relative viability", "setting": "[4]; first compound 6.325 µM", "value": 0.429}, {"measurement": "relative viability", "setting": "[4]; first compound 20 µM", "value": 0.52}, {"measurement": "relative viability", "setting": "[5]; first compound 0.2 µM", "value": 0.294}, {"measurement": "relative viability", "setting": "[5]; first compound 0.6325 µM", "value": 0.291}, {"measurement": "relative viability", "setting": "[5]; first compound 2 µM", "value": 0.27}, {"measurement": "relative viability", "setting": "[5]; first compound 6.325 µM", "value": 0.311}, {"measurement": "relative viability", "setting": "[5]; first compound 20 µM", "value": 0.248}, {"measurement": "relative viability", "setting": "[6]; first compound 0.2 µM", "value": 0.204}, {"measurement": "relative viability", "setting": "[6]; first compound 0.6325 µM", "value": 0.118}, {"measurement": "relative viability", "setting": "[6]; first compound 6.325 µM", "value": 0.123}, {"measurement": "relative viability", "setting": "[6]; first compound 20 µM", "value": 0.0846}, {"measurement": "relative viability", "setting": "[7]; first compound 0.2 µM", "value": 0.523}, {"measurement": "relative viability", "setting": "[7]; first compound 0.6325 µM", "value": 0.384}, {"measurement": "relative viability", "setting": "[7]; first compound 6.325 µM", "value": 0.412}, {"measurement": "relative viability", "setting": "[7]; first compound 20 µM", "value": 0.165}, {"measurement": "relative viability", "setting": "[8]; first compound 0.2 µM", "value": 0.592}, {"measurement": "relative viability", "setting": "[8]; first compound 0.6325 µM", "value": 0.549}, {"measurement": "relative viability", "setting": "[8]; first compound 2 µM", "value": 0.357}, {"measurement": "relative viability", "setting": "[8]; first compound 6.325 µM", "value": 0.697}, {"measurement": "relative viability", "setting": "[8]; first compound 20 µM", "value": 0.142}, {"measurement": "relative viability", "setting": "[9]; first compound 0.2 µM", "value": 0.933}, {"measurement": "relative viability", "setting": "[9]; first compound 0.6325 µM", "value": 0.445}, {"measurement": "relative viability", "setting": "[9]; first compound 2 µM", "value": 0.321}, {"measurement": "relative viability", "setting": "[9]; first compound 6.325 µM", "value": 0.468}, {"measurement": "relative viability", "setting": "[9]; first compound 20 µM", "value": 0.421}, {"measurement": "relative viability", "setting": "[10]; first compound 0.2 µM", "value": 0.493}, {"measurement": "relative viability", "setting": "[10]; first compound 0.6325 µM", "value": 0.437}, {"measurement": "relative viability", "setting": "[10]; first compound 2 µM", "value": 0.466}, {"measurement": "relative viability", "setting": "[10]; first compound 6.325 µM", "value": 0.469}, {"measurement": "relative viability", "setting": "[10]; first compound 20 µM", "value": 0.406}, {"measurement": "relative viability", "setting": "[11]; first compound 0.2 µM", "value": 0.414}, {"measurement": "relative viability", "setting": "[11]; first compound 0.6325 µM", "value": 0.323}, {"measurement": "relative viability", "setting": "[11]; first compound 2 µM", "value": 0.386}, {"measurement": "relative viability", "setting": "[11]; first compound 6.325 µM", "value": 0.308}, {"measurement": "relative viability", "setting": "[11]; first compound 20 µM", "value": 0.154}, {"measurement": "relative viability", "setting": "[12]; first compound 0.2 µM", "value": 0.645}, {"measurement": "relative viability", "setting": "[12]; first compound 0.6325 µM", "value": 0.696}, {"measurement": "relative viability", "setting": "[12]; first compound 2 µM", "value": 0.632}, {"measurement": "relative viability", "setting": "[12]; first compound 6.325 µM", "value": 0.629}, {"measurement": "relative viability", "setting": "[12]; first compound 20 µM", "value": 0.345}, {"measurement": "relative viability", "setting": "[13]; first compound 0.2 µM", "value": 0.332}, {"measurement": "relative viability", "setting": "[13]; first compound 0.6325 µM", "value": 0.324}, {"measurement": "relative viability", "setting": "[13]; first compound 6.325 µM", "value": 0.328}, {"measurement": "relative viability", "setting": "[13]; first compound 20 µM", "value": 0.363}, {"measurement": "relative viability", "setting": "[14]; first compound 0.2 µM", "value": 0.494}, {"measurement": "relative viability", "setting": "[14]; first compound 0.6325 µM", "value": 0.335}, {"measurement": "relative viability", "setting": "[14]; first compound 2 µM", "value": 0.54}, {"measurement": "relative viability", "setting": "[14]; first compound 6.325 µM", "value": 0.415}, {"measurement": "relative viability", "setting": "[14]; first compound 20 µM", "value": 0.198}, {"measurement": "relative viability", "setting": "[15]; first compound 0.2 µM", "value": 0.511}, {"measurement": "relative viability", "setting": "[15]; first compound 0.6325 µM", "value": 0.582}, {"measurement": "relative viability", "setting": "[15]; first compound 2 µM", "value": 0.568}, {"measurement": "relative viability", "setting": "[15]; first compound 6.325 µM", "value": 0.638}, {"measurement": "relative viability", "setting": "[15]; first compound 20 µM", "value": 0.618}, {"measurement": "relative viability", "setting": "[16]; first compound 0.2 µM", "value": 0.681}, {"measurement": "relative viability", "setting": "[16]; first compound 0.6325 µM", "value": 0.653}, {"measurement": "relative viability", "setting": "[16]; first compound 2 µM", "value": 0.652}, {"measurement": "relative viability", "setting": "[16]; first compound 6.325 µM", "value": 0.777}, {"measurement": "relative viability", "setting": "[16]; first compound 20 µM", "value": 0.688}, {"measurement": "relative viability", "setting": "[17]; first compound 0.2 µM", "value": 0.949}, {"measurement": "relative viability", "setting": "[17]; first compound 0.6325 µM", "value": 0.797}, {"measurement": "relative viability", "setting": "[17]; first compound 2 µM", "value": 0.732}, {"measurement": "relative viability", "setting": "[17]; first compound 6.325 µM", "value": 0.873}, {"measurement": "relative viability", "setting": "[17]; first compound 20 µM", "value": 0.854}, {"measurement": "relative viability", "setting": "[18]; first compound 0.2 µM", "value": 0.613}, {"measurement": "relative viability", "setting": "[18]; first compound 0.6325 µM", "value": 0.458}, {"measurement": "relative viability", "setting": "[18]; first compound 2 µM", "value": 0.602}, {"measurement": "relative viability", "setting": "[18]; first compound 6.325 µM", "value": 0.518}, {"measurement": "relative viability", "setting": "[18]; first compound 20 µM", "value": 0.383}, {"measurement": "relative viability", "setting": "[19]; first compound 0.2 µM", "value": 0.813}, {"measurement": "relative viability", "setting": "[19]; first compound 0.6325 µM", "value": 0.724}, {"measurement": "relative viability", "setting": "[19]; first compound 2 µM", "value": 0.692}, {"measurement": "relative viability", "setting": "[19]; first compound 6.325 µM", "value": 0.797}, {"measurement": "relative viability", "setting": "[19]; first compound 20 µM", "value": 0.401}, {"measurement": "relative viability", "setting": "[20]; first compound 0.2 µM", "value": 0.387}, {"measurement": "relative viability", "setting": "[20]; first compound 0.6325 µM", "value": 0.346}, {"measurement": "relative viability", "setting": "[20]; first compound 2 µM", "value": 0.324}, {"measurement": "relative viability", "setting": "[20]; first compound 6.325 µM", "value": 0.245}, {"measurement": "relative viability", "setting": "[20]; first compound 20 µM", "value": 0.2}, {"measurement": "relative viability", "setting": "[21]; first compound 0.2 µM", "value": 0.374}, {"measurement": "relative viability", "setting": "[21]; first compound 0.6325 µM", "value": 0.417}, {"measurement": "relative viability", "setting": "[21]; first compound 6.325 µM", "value": 0.446}, {"measurement": "relative viability", "setting": "[21]; first compound 20 µM", "value": 0.403}]}]}
